ChEMBL document CHEMBL6134921, “Novel Tetrahydrobenzo[b]pyrazolo[3,4-e][1,4]diazepine Compounds as Oxytocin Receptor Agonists for Treating Autism Spectrum Disorders” (ACS Med Chem Lett, 2025)

What was measured:
Oxytocin receptor = target: T1, Oxytocin receptor (Homo sapiens, UniProt P30559); experiment: Agonist activity at oxytocin receptor (unknown origin) expressed in CHO cells by IP-1 accumulation assay; format: functional, cell-based
T1 sequence (P30559 whole entry): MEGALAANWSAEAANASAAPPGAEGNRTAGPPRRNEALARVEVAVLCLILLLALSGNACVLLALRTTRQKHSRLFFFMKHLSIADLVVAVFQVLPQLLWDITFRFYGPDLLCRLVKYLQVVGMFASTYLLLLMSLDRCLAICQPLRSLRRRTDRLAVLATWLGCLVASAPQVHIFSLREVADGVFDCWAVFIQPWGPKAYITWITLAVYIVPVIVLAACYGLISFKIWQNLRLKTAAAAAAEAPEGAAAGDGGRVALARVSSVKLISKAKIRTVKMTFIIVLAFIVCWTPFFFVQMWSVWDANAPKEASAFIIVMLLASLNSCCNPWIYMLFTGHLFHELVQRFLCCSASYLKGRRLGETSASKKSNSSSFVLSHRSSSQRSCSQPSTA

Vasopressin V1a receptor = Vasopressin V1a receptor (Homo sapiens, UniProt P37288); experiment: Antagonist activity at V1A receptor (unknown origin) by calcium signal assay; format: functional
Vasopressin V1a receptor, sequence (P37288 whole entry): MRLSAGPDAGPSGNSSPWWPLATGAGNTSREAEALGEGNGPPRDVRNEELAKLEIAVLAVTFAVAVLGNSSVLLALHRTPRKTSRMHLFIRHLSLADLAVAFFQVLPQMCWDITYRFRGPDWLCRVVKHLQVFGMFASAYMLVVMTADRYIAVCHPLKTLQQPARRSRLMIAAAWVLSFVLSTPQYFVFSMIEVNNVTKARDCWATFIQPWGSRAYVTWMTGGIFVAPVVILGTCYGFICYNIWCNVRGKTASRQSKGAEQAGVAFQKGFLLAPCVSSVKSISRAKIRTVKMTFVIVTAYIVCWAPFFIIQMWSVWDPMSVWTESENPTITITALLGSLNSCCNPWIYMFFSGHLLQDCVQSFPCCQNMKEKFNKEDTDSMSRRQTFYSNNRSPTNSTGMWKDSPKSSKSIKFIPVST

[1] = Selectivity ratio, IC50 for antagonist activity at V1A receptor (unknown origin) to EC50 for agonist activity at oxytocin receptor (unknown origin) expressed in CHO cells; format: cell-based

Compound: Cc1cc(C(=O)N2Cc3cnn(C)c3Nc3ccccc32)ccc1CNC(=O)N1C[C@H](n2cc(CF)nn2)C[C@H]1C(=S)N(C)C
- EC50 (Oxytocin receptor): 0.31 nM

Compound: Cc1cc(C(=O)N2Cc3cnn(C)c3Nc3ccccc32)ccc1CNC(=O)N1C[C@@H](n2cc(CO)nn2)C[C@H]1C(=S)N(C)C
- IC50 (Vasopressin V1a receptor): 700 nM
- Ratio IC50/EC50 [1]: 5000
- EC50 (Oxytocin receptor): 0.14 nM

Compound: Cc1cc(C(=O)N2Cc3cnn(C)c3Nc3ccccc32)ccc1CNC(=O)N1C[C@H](n2cc(CCc3nnn[nH]3)nn2)C[C@H]1C(=S)N(C)C
- IC50 (Vasopressin V1a receptor): > 10000 nM
- Ratio IC50/EC50 [1]: > 5000
- EC50 (Oxytocin receptor): 1.95 nM

Compound: Cc1cc(C(=O)N2Cc3cnn(C)c3Nc3ccccc32)ccc1CNC(=O)N1C[C@H](n2cc(COCCF)nn2)C[C@H]1C(=S)N(C)C
- EC50 (Oxytocin receptor): 0.55 nM

Compound: Cc1cc(C(=O)N2Cc3cnn(C)c3Nc3ccccc32)ccc1CNC(=O)N1C[C@H](n2cc(CC3NC(=O)NC3=O)nn2)C[C@H]1C(=S)N(C)C (some centres undefined)
- IC50 (Vasopressin V1a receptor): 393 nM
- Ratio IC50/EC50 [1]: 1510
- EC50 (Oxytocin receptor): 0.26 nM

Compound: Cc1cc(C(=O)N2Cc3cnn(C)c3Nc3ccccc32)ccc1CNC(=O)N1C[C@H](n2cc(CO)nn2)C[C@H]1C(=S)N(C)C
- IC50 (Vasopressin V1a receptor): 966 nM
- Ratio IC50/EC50 [1]: 6450
- EC50 (Oxytocin receptor): 0.15 nM
